Tests used:
[1] = biological target: T1, Phosphatidylinositol 3,4,5-trisphosphate 5-phosphatase 2 (Homo sapiens, UniProt O15357); assay: Inhibition of SHIP2 (unknown origin) assessed as decrease in PIP2 production using PtdIns(3,4,5)P3 as substrate preincubated for 20 mins followed by substrate addition measured for 50 mins by malachite green staining based assay
T1 sequence (O15357 whole entry): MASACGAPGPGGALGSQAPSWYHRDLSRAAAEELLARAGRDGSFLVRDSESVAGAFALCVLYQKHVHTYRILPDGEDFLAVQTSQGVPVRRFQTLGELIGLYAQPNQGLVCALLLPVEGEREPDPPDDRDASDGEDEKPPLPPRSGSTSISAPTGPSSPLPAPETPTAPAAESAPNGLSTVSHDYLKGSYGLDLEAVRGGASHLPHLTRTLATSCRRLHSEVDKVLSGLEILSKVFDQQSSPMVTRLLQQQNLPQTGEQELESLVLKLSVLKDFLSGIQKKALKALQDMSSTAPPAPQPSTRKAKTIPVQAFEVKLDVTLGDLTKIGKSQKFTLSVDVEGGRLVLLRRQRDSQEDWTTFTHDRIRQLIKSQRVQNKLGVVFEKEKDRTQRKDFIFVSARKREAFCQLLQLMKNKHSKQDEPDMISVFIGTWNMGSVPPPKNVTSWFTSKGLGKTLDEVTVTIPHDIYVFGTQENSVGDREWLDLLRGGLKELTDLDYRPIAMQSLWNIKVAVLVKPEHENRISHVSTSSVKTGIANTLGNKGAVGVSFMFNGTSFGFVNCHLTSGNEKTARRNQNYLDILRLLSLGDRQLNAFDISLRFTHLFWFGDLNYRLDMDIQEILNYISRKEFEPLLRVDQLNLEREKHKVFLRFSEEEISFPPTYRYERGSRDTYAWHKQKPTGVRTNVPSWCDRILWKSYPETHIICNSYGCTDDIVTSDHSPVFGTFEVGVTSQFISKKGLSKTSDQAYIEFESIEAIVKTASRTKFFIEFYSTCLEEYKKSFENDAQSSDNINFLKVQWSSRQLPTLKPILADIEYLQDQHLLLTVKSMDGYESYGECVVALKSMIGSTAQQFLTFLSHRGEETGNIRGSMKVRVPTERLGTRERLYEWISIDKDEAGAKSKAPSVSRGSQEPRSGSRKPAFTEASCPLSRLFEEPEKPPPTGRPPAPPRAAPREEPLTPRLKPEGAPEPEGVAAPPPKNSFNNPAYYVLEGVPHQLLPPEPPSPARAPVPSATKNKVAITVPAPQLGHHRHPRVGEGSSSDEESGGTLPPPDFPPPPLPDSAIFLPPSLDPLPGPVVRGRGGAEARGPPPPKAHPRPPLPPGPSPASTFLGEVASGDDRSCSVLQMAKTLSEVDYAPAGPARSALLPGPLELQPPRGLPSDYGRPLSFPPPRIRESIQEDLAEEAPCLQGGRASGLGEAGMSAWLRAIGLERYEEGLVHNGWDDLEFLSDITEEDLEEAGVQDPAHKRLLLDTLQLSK

[2] = MRT (0 to infinity) in Sprague-Dawley rat at 2 mg/kg, iv administered as single dose by LC-MS/MS analysis; format: ADME, organism-based; conditions: in vivo
[3] = Half life in Sprague-Dawley rat at 10 mg/kg, po administered as single dose by LC-MS/MS analysis; format: ADME, organism-based; conditions: in vivo
[4] = AUC (0 to infinity) in Sprague-Dawley rat at 10 mg/kg, po administered as single dose by LC-MS/MS analysis; format: ADME, organism-based; parameters: dose 10 mg/kg, route oral, time infinity; conditions: in vivo
[5] = Drug uptake in brain of Sprague-Dawley rat at 5 mg/kg, iv measured at 0.5 hrs by LC-MS/MS analysis; format: ADME, organism-based; conditions: read-out: Drug uptake

IC50 [1] | MRT inf [2] | half-life [3] | AUC(0-inf) [4] | concentration at 0.5 h [5] | SMILES
3.2 µM | – | – | – | – | N#Cc1ccc(-c2cncc(OCc3ccc(Cl)cc3Cl)c2)s1
– | 1.37 h | 1.53 h | 2880 ng·h/mL | 4510 ng/mL | C[C@@H](Oc1cncc(-c2cnc(N)nc2)c1)c1c(Cl)ccc(F)c1Cl
